Usually IC50 stands for the concentration at which inhibition is half-maximal.

Molecules are shown by their SMILES.

This assay addresses T1, H. sapiens SLC2A9 variant 2 (GLUT9B) (Homo sapiens, UniProt Q9NRM0).
T1 sequence (Q9NRM0 1-511 isoform Q9NRM0-2): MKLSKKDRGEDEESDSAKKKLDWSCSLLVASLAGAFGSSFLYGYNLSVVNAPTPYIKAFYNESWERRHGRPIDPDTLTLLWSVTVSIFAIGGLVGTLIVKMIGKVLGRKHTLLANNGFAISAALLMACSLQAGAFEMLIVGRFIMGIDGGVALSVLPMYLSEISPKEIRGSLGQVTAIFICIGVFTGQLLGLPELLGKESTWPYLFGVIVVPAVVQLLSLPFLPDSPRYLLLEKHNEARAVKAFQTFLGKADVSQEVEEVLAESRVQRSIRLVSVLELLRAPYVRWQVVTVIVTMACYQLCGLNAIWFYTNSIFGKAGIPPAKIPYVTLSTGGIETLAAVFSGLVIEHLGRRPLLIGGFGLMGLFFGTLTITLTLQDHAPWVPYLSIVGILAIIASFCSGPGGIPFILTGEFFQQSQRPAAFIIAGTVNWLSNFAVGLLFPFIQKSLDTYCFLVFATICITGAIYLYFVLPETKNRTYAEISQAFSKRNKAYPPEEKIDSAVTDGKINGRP
Kind of assay: GLUT9 functional assay: uric acid uptake in HEK293T cells, allantoin formation by MS/MS as proxy of GLUT9B inhibition. Conditions: 15 minute assay; HEK293T cells stably expressing GLUT9B and transiently A. oryzae uricase; uric acid 0.3 mM, 37° C.; read-out: 15 min IC50. In kind it is cell-based. As for the experimental part: Uric acid stocks (9 mM, Millipore-Sigma, U0881) were generated in 125 mM choline chloride (Millipore-Sigma, C7017) and the concentration was determined at 293 nm using a molar extinction coefficient of 9600 M- ^1 cm- ^1) after collecting the absorbance spectra from 220-350 nm. Allantoin stocks (12 mM Toronto Research Chemicals, A540500) were generated in LCMS grade water (Thermo Scientific, 51140). The concentration of allantoin was determined by qNMR (Michigan State University). HEK293T cells were purchased from ATCC (HEK 293T/17 SF). Hanks buffered saline salts (HBSS) was purchased from Millipore-Sigma (H6648-1L).
SLC2A9 variant 2 was assayed in sodium gluconate buffer was composed of 125 mM sodium gluconate (TCI Chemicals, G0041-500G), 4.8 mM potassium gluconate (TCI Chemicals, G0040-500G), 1.2 mM calcium gluconate (TCI Chemicals, G0037-500G), 1.2 mM potassium phosphate (pH 7.4, Millipore-Sigma, 17835), 1.2 mM MgSO4, Millipore-Sigma, M2773-500G), 25 mM HEPES pH 7.3, (Millipore-Sigma, 54457). The final pH of the buffer was 7.4. Urate 1 was assayed in the same buffer save the pH was made to be 5.5 using 25 mM MES (pH 5.5) buffer vs 25 mM HEPES (pH 7.3) buffer.
Human untagged clone for (untagged)-human solute carrier family 2 member 9 (SLC2A9), transcript variant (SLC2A9/NM_001001290, FIG. 1 and FIG. 2; SEQ ID NOS: 3 and 4) was purchased from Origene (Cat #SC319239). SLC2A9 variant 2 (GLUT9B) gene was amplified by PCR using the following primer to allow for the introduction of EcoR1 and Not1 sites using the primers below.
HEK293T clonal stable cell lines containing the SLC2A9 variant 2 construct in the bicistronic pIRESpuro vector were generated using Viafect™ (Promega E4981) as per the manufactures instructions and puromycin selection (5 μg×mL^−1).
Uric acid uptake was measured in HEK293T cells stably expressing H. sapiens SLC2A9 variant 2 (GLUT9B) and transiently expressing A. oryzae uricase. Thus, decreased allantoin formation was used as a proxy of GLUT9B inhibition. Briefly, clonal cells were plated (53,000 cells/cm^2) in DMEM with 10% FBS. Twenty-four hours later, A. oryzae uricase was transfected, and assay conducted 3 days later across a 12-point curve in buffer (in mM: 125 sodium gluconate, 4.8 potassium gluconate, 1.2 calcium gluconate, 1.2 potassium phosphate, 1.2 magnesium sulfate4, 25 HEPES; pH 7.4) with uric acid at the GLUT9B Km (0.3 mM) for 15 min or for 60 min, at 37° C. Following wash (Hanks, 37° C.), plates were sealed, incubated (5 min, RT) and cells freeze-thawed prior to lysing in water and shaking (30 min RT). Lysates were filtered through PVDF and subjected to MSMS using a 10 mM ammonium acetate-based mobile phase on a porous graphitic carbon column. Allantoin was detected in positive ion mode. Desired analyte concentrations were quantitated by integrating the area under the curve followed by a log-logistic regression model and data compared to a standard curve prepared in a matching HEK293T biological matrix.
Mass spectrometry measurement of allantoin was completed using an Agilent RapidFire 300 coupled to a Sciex API 4000 mass spectrometer. The stationary phase was an Agilent cartridge D (hypercarb). Mobile phase A was 10 mM ammonium acetate. Mobile phase B was 5 mM ammonium acetate, 25% acetonitrile, 25% acetone. Allantoin was detected in positive ion mode with the following compound ID settings: Q1 159, Q3 115.8, DP 57, CE 12.5 Dwell 100 ms. The source settings were CAD 10, CUR 20, GS1 50, GS250 IS/NC: 5000, TEM 650, EP 10, CXP 10 where Q1 and Q3 resolution were set to low.
Data was quantitated using Area under the curve integration was performed with the RapidFire™ Integrator (Agilent Technologies) for the desired analytes. Quantitation was completed using in a using a log-logistic regression model using allantoin in matching HEK293T biological matrix.
Regarding `CCCCc1cnc(-c2ccc(OC)cc2)c(-c2ccc3c(C(=O)O)c[nH]c3c2)c1` [Compound 39, 6-(5-butyl-2-(4-methoxyphenyl)pyridin-3-yl)-1H-indole-3-carboxylic acid], the IC50 is < 500 nM.
Regarding `CCCCc1cnc(-c2ccc(OC)cc2)c(-c2ccc3c(C(=O)O)coc3c2)c1` [Compound 40, 6-(5-butyl-2-(4-methoxyphenyl)pyridin-3-yl)benzofuran-3-carboxylic acid], the IC50 is < 500 nM.
Turning to `CCCCc1cnc(-c2ccc(OC)cc2)c(N2CCc3c(C(=O)O)csc3C2)n1` [Compound 41, 6-(6-butyl-3-(4-methoxyphenyl)pyrazin-2-yl)-4,5,6,7-tetrahydrothieno[2,3-c]pyridine-3-carboxylic acid], the IC50 was in the range of 500 to 2000 nM.
With `CCCCc1cnc(-c2ccc(OCCOC(F)(F)F)cc2)c(N2CCC(C(=O)O)CC2)n1` [Compound 42, 1-(6-butyl-3-(4-(2-(trifluoromethoxy)ethoxy)phenyl)pyrazin-2-yl)piperidine-4-carboxylic acid], the IC50 was > 2000 nM.
Under `CCCCc1cnc(-c2ccc(OC)s2)c(N2CCC(C(=O)O)CC2)n1` [Compound 43, 1-(6-butyl-3-(5-methoxythiophen-2-yl)pyrazin-2-yl)piperidine-4-carboxylic acid] stands > 2000 nM.
Turning to `CCCCc1cnc(-c2cnc(OC)s2)c(N2CCC(C(=O)O)CC2)n1` [Compound 44, 1-(6-butyl-3-(2-methoxythiazol-5-yl)pyrazin-2-yl)piperidine-4-carboxylic acid], the IC50 was > 2000 nM.
Regarding `CCCCc1cnc(-c2ccc3c(c2)OCO3)c(N2CCC(C(=O)O)CC2)n1` [Compound 45], the IC50 was < 500 nM.
To `CCCCc1cnc(-c2cc(F)c3c(c2)OCO3)c(N2CCC(C(=O)O)CC2)n1` [Compound 46, 1-(6-butyl-3-(7-fluorobenzo[d][1,3]dioxol-5-yl)pyrazin-2-yl)piperidine-4-carboxylic acid] belongs < 500 nM; to `CCCCc1cnc(-c2ccc3c(c2)C(=O)CO3)c(N2CCC(C(=O)O)CC2)n1` [Compound 47, 1-(6-butyl-3-(3-oxo-2,3-dihydrobenzofuran-5-yl)pyrazin-2-yl)piperidine-4-carboxylic acid], 500 to 2000 nM; to `CCCCc1cnc(-c2ccc(OC)cc2)c(N2CCC(CCC(=O)O)CC2)n1` [Compound 48, 3-(1-(6-butyl-3-(4-methoxyphenyl)pyrazin-2-yl)piperidin-4-yl)propanoic acid], < 500 nM.
Turning to `COCc1cnc(-c2cc(F)c3occc3c2)c(N2CCC(C(=O)O)CC2)n1` [Compound 49, 1-(3-(7-fluorobenzofuran-5-yl)-6-(methoxymethyl)pyrazin-2-yl)piperidine-4-carboxylic acid], the IC50 was in the range of 500 to 2000 nM.
As to `COCCn1ccc2cc(-c3ncc(COC)nc3N3CCC(C(=O)O)CC3)cc(F)c21` [Compound 50, 1-(3-(7-fluoro-1-(2-methoxyethyl)-1H-indol-5-yl)-6-(methoxymethyl)pyrazin-2-yl)piperidine-4-carboxylic acid], the IC50 was > 2000 nM.
Consider `COCc1cnc(-c2cc(F)c3c(ccn3C)c2)c(N2CCC(C(=O)O)CC2)n1` [Compound 51, 1-(3-(7-fluoro-1-methyl-1H-indol-5-yl)-6-(methoxymethyl)pyrazin-2-yl)piperidine-4-carboxylic acid], for which the IC50 was > 2000 nM.
For the compound `COCc1cnc(-c2cc(F)c3ccn(C)c3c2)c(N2CCC(C(=O)O)CC2)n1` [Compound 52, 1-(3-(4-fluoro-1-methyl-1H-indol-6-yl)-6-(methoxymethyl)pyrazin-2-yl)piperidine-4-carboxylic acid], the IC50 is < 500 nM.
Under `COCC(COC)Cc1cnc(-c2cc(F)c3occc3c2)c(N2CCC(C(=O)O)CC2)n1` [Compound 53, 1-(3-(7-Fluorobenzofuran-5-yl)-6-(3-Methoxy-2-(methoxymethyl)propyl)pyrazin-2-yl)piperidine-4-carboxylic acid] stands < 500 nM; under `COc1ccc(-c2nc(Cl)c(COCC(F)(F)F)nc2N2CCC(C(=O)O)CC2)cc1` [Compound 54, 1-(5-chloro-3-(4-methoxyphenyl)-6-((2,2,2-trifluoroethoxy)methyl)pyrazin-2-yl)piperidine-4-carboxylic acid], > 2000 nM; under `COCc1cnc(-c2cc(F)c3c(c2)CCO3)c(N2CCC(C(=O)O)CC2)n1` [Compound 55, 1-(3-(7-fluoro-2,3-dihydrobenzofuran-5-yl)-6-(methoxymethyl)pyrazin-2-yl)piperidine-4-carboxylic acid], 500 to 2000 nM.
With `COCc1nc(N2CCC(C(=O)O)CC2)c(-c2cc(F)c3c(ccn3C)c2)nc1Cl` [Compound 56, 1-(5-chloro-3-(7-fluoro-1-methyl-1H-indol-5-yl)-6-(methoxymethyl)pyrazin-2-yl)piperidine-4-carboxylic acid], the IC50 is > 2000 nM.
Under `O=C(O)C1CCN(c2nc(COCC(F)(F)F)cnc2-c2ccc3oc(F)cc3c2)CC1` [Compound 57, 1-(3-(2-fluorobenzofuran-5-yl)-6-((2,2,2-trifluoroethoxy)methyl)pyrazin-2-yl)piperidine-4-carboxylic acid] stands > 2000 nM; under `O=C(O)C1CCN(c2nc(COCC(F)(F)F)cnc2-c2ccc(Cl)c(OC(F)(F)F)c2)CC1` [Compound 58, 1-(3-(4-chloro-3-(trifluoromethoxy)phenyl)-6-((2,2,2-trifluoroethoxy)methyl)pyrazin-2-yl)piperidine-4-carboxylic acid], > 2000 nM; under `O=C(O)c1c[nH]c2cc(-c3cc(COC(F)(F)F)cnc3-c3cc(F)c4occc4c3)ccc12` [Compound 59, 6-(2-(7-fluorobenzofuran-5-yl)-5-((trifluoromethoxy)methyl)pyridin-3-yl)-1H-indole-3-carboxylic acid], < 500 nM.
For `O=C(O)C1CCN(c2nc(CCC(F)(F)F)cnc2-c2ccc3oc(F)cc3c2)CC1` [Compound 60, 1-(3-(2-fluorobenzofuran-5-yl)-6-(3,3,3-trifluoropropyl)pyrazin-2-yl)piperidine-4-carboxylic acid], the IC50 fell in the range of 500 to 2000 nM.
With `O=C(O)C1CCN(c2nc(CCC(F)(F)F)cnc2-c2cc(F)c3occc3c2)CC1` [Compound 61, 1-(3-(7-Fluorobenzofuran-5-yl)-6-(3,3,3-Trifluoropropyl)Pyrazin-2-yl)piperidine-4-carboxylic acid], the IC50 was < 500 nM.
With `COc1cc(-c2ncc(CCC(F)(F)F)nc2N2CCC(C(=O)O)CC2)ccc1Cl` [Compound 62, 1-(3-(4-chloro-3-methoxyphenyl)-6-(3,3,3-trifluoropropyl)pyrazin-2-yl)piperidine-4-carboxylic acid], the IC50 is > 2000 nM.
